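Cultured in 96-well plates, cells were exposed to test compound for 48 hours across five concentrations. GI50: concentration for 50% inhibition of growth. TGI denotes the concentration required for complete inhibition of growth.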

The subject of one assay is RXF 393 renal. Description: NCI anticancer screen, dose series, 48 h.
In the case of `COc1ccc(CC(O)CN2CCOCC2)cc1` (stereo unspecified), the TGI was more than 100 µM.

Compound `N#C/C(=C\c1cc(Br)c(O)c(Br)c1)c1cccnc1` yielded a TGI of more than 100 µM.

In the next assay the test system is SNB-19 CNS. Description: NCI anticancer screen, dose series, 48 h.
In turn, `CS(=O)(=O)OCCn1c(=O)n(CCOS(C)(=O)=O)c(=O)n(CCOS(C)(=O)=O)c1=O` showed a TGI of more than 100 µM.

`c1ccc2c(c1)NC(C1OC3CCCN3C1C1Nc3ccccc3S1)S2` (stereo unspecified): the TGI was more than 100 µM.

Compound `CC(=O)O[C@]12CCCCCC1C1(O)C(O)CCC[C@H]12` (stereo partly specified) yielded a TGI of more than 100 µM.

The compound `CC(C)(C)NC(=O)/C(=C\Sc1ccccc1)c1ccc2c(c1)OCO2` came in with a TGI of more than 100 µM.

Regarding `COc1nc(C#CCC(C)O)nc(OC)n1` (stereo unspecified), the TGI is more than 100 µM.

On to `COCOc1ccc(Cn2c(=O)n(C)c(=O)c3c2ncn3C)cc1[N+](=O)[O-]`, for which the TGI is more than 100 µM.

`Cc1c2c(n(CCc3ccc(Cl)cc3)c1C)NN=C(C#N)S2(=O)=O` displayed a TGI of more than 100 µM.

Take `COc1ccc2cc(-c3ccc(-c4ccc(C(=N)N)s4)s3)ccc2c1`: the GI50 is 2.13 µM and the TGI is more than 100 µM.

`BrC/C=C/C[P+](c1ccccc1)(c1ccccc1)c1ccccc1` had a TGI of more than 100 µM.

`Cc1cc(=O)c2c([nH]1)NS(=O)(=O)NC2=O` had a TGI of more than 100 µM.

In turn, `CC12CC(=O)C3C(C(=O)C1)C32C` (stereo unspecified) came in with a TGI of more than 100 µM.

As to `COc1cc([N+](=O)[O-])c(OC)cc1-c1nc2sc(Cl)cn2c1/C=N/Nc1ccccn1`, the GI50 was more than 50 µM and the TGI is more than 50 µM.

For `CC(=O)N/N=C1\NC(=O)C[C@H]2[C@@H]3CC=C4C[C@@H](OC(C)=O)CC[C@]4(C)[C@H]3CC[C@]12C`, the TGI came out at 39.9 µM.

With `C=C[C@@H]1C(CO)=CCC2[C@H]1CCC1C(C)(C)C(=O)CC[C@]21C` (stereo partly specified), the TGI was more than 100 µM.

With `C/C(CC1C2CCCC1C2)=N\NC(N)=O` (stereo unspecified), the TGI was more than 100 µM.

`c1ccc2sc(SCSc3nc4ccccc4s3)nc2c1` had a TGI of more than 100 µM.

Take `N#CC(C#N)=CNC(=S)c1ccncc1`: the TGI was more than 100 µM.

As to `C=CCNC(=S)/N=C/c1c(O)c2ccccc2oc1=O`, the TGI is more than 100 µM.

Turning to `O=C(CCCN1CCC2(CC1)CC(=O)N(N1CCOCC1)C2=O)c1ccccc1`, the TGI was more than 100 µM.

Compound `CC(=O)N(C(C)=O)C1=C2c3ccccc3N(S(=O)(=O)c3ccccc3)C2n2c(=O)n(-c3ccccc3)c(=O)n2C1` (stereo unspecified) came in with a TGI of more than 100 µM.

In the case of `Cc1ccccc1C(O)(c1nccn1C)c1nccn1C`, the TGI was more than 100 µM.

Compound `O=C(NC(Cc1ccc(I)cc1)C(=O)O)c1ccc(I)cc1` (stereo unspecified) registered a TGI of more than 100 µM.

In turn, `O=[N+]([O-])/C(C(Cl)=C(Cl)Cl)=C(\Nc1cccc2cccnc12)SCc1ccccc1` gave a TGI of 42 µM.

Compound `CCCCC1c2c([nH]c3ccccc23)C2C(=O)N(c3ccc(OC)cc3)C(=O)C2C1CCC` (stereo unspecified) showed a TGI of more than 10 µM.

As to `COc1ccc(C#CC(=O)O)c(OC)c1`, the TGI was more than 100 µM.

On to `CSc1cc(Cl)c(C)cc1S(=O)(=O)NC(=O)NNc1ccc(Cl)cc1`, for which the TGI is more than 100 µM.

`O=c1ccc2cc3ccc4cccc5ccc(c2o1)c3c45`: the TGI was more than 100 µM.

In turn, `O=c1c2ccccc2nc2[nH][nH]c(=S)n12` displayed a TGI of more than 100 µM.

In turn, `O=S(=O)(O)c1cc2ccc1/C=C\c1ccc(cc1S(=O)(=O)O)N=Nc1ccc(c(S(=O)(=O)O)c1)/C=C\c1ccc(cc1S(=O)(=O)O)N=N2` returned a TGI of more than 100 µM.

`COc1ccc(CC(O)CN2CCOCC2)cc1` (stereo unspecified) yielded a TGI of more than 100 µM.

As for `N#C/C(=C\c1cc(Br)c(O)c(Br)c1)c1cccnc1`, the TGI is more than 100 µM.

In a further assay the test system is UACC-257 melanoma. Description: NCI anticancer screen, dose series, 48 h.
In the case of `CS(=O)(=O)OCCn1c(=O)n(CCOS(C)(=O)=O)c(=O)n(CCOS(C)(=O)=O)c1=O`, the TGI is more than 100 µM.

Regarding `c1ccc2c(c1)NC(C1OC3CCCN3C1C1Nc3ccccc3S1)S2` (stereo unspecified), the TGI is more than 100 µM.

`CC(=O)O[C@]12CCCCCC1C1(O)C(O)CCC[C@H]12` (stereo partly specified) showed a TGI of more than 100 µM.

As for `CC(C)(C)NC(=O)/C(=C\Sc1ccccc1)c1ccc2c(c1)OCO2`, the TGI is 74.5 µM.

`COc1nc(C#CCC(C)O)nc(OC)n1` (stereo unspecified) had a TGI of more than 100 µM.

The compound `COCOc1ccc(Cn2c(=O)n(C)c(=O)c3c2ncn3C)cc1[N+](=O)[O-]` came in with a TGI of more than 100 µM.

The compound `Cc1c2c(n(CCc3ccc(Cl)cc3)c1C)NN=C(C#N)S2(=O)=O` came in with a TGI of more than 100 µM.

In the case of `COc1ccc2cc(-c3ccc(-c4ccc(C(=N)N)s4)s3)ccc2c1`, the GI50 is 19.6 µM and the TGI turned out to be 35.4 µM.

As for `BrC/C=C/C[P+](c1ccccc1)(c1ccccc1)c1ccccc1`, the TGI was more than 100 µM.

`Cc1cc(=O)c2c([nH]1)NS(=O)(=O)NC2=O` gave a TGI of more than 100 µM.

For the compound `CC12CC(=O)C3C(C(=O)C1)C32C` (stereo unspecified), the TGI was more than 100 µM.

For `COc1cc([N+](=O)[O-])c(OC)cc1-c1nc2sc(Cl)cn2c1/C=N/Nc1ccccn1`, the GI50 is more than 50 µM and the TGI was more than 50 µM.

`CC(=O)N/N=C1\NC(=O)C[C@H]2[C@@H]3CC=C4C[C@@H](OC(C)=O)CC[C@]4(C)[C@H]3CC[C@]12C` yielded a TGI of more than 100 µM.

With `C=C[C@@H]1C(CO)=CCC2[C@H]1CCC1C(C)(C)C(=O)CC[C@]21C` (stereo partly specified), the TGI is more than 100 µM.

Consider `C/C(CC1C2CCCC1C2)=N\NC(N)=O` (stereo unspecified), for which the TGI is more than 100 µM.

Take `c1ccc2sc(SCSc3nc4ccccc4s3)nc2c1`: the TGI was more than 100 µM.

For `N#CC(C#N)=CNC(=S)c1ccncc1`, the TGI is more than 100 µM.

The compound `C=CCNC(=S)/N=C/c1c(O)c2ccccc2oc1=O` displayed a TGI of more than 100 µM.

Compound `O=C(CCCN1CCC2(CC1)CC(=O)N(N1CCOCC1)C2=O)c1ccccc1` came in with a TGI of more than 100 µM.

`CC(=O)N(C(C)=O)C1=C2c3ccccc3N(S(=O)(=O)c3ccccc3)C2n2c(=O)n(-c3ccccc3)c(=O)n2C1` (stereo unspecified): the TGI is more than 100 µM.

`Cc1ccccc1C(O)(c1nccn1C)c1nccn1C` yielded a TGI of more than 100 µM.

Consider `O=C(NC(Cc1ccc(I)cc1)C(=O)O)c1ccc(I)cc1` (stereo unspecified), for which the TGI is more than 100 µM.

Turning to `O=[N+]([O-])/C(C(Cl)=C(Cl)Cl)=C(\Nc1cccc2cccnc12)SCc1ccccc1`, the TGI was determined as 49.2 µM.

Regarding `CCCCC1c2c([nH]c3ccccc23)C2C(=O)N(c3ccc(OC)cc3)C(=O)C2C1CCC` (stereo unspecified), the TGI came out at 9.62 µM.

Compound `COc1ccc(C#CC(=O)O)c(OC)c1` registered a TGI of more than 100 µM.

Turning to `O=c1c2ccccc2nc2[nH][nH]c(=S)n12`, the TGI is more than 100 µM.

The compound `O=S(=O)(O)c1cc2ccc1/C=C\c1ccc(cc1S(=O)(=O)O)N=Nc1ccc(c(S(=O)(=O)O)c1)/C=C\c1ccc(cc1S(=O)(=O)O)N=N2` showed a TGI of more than 100 µM.

`COc1ccc(CC(O)CN2CCOCC2)cc1` (stereo unspecified): the TGI is more than 100 µM.

Take `N#C/C(=C\c1cc(Br)c(O)c(Br)c1)c1cccnc1`: the TGI amounted to 73.5 µM.

The values above are taken from PubChem BioAssay (NCI).
